Experimental data taken from US5621102A, “Process for preparing enantiomerically pure xanthine derivatives” (Cell Therapeutics, Inc., priority 1995, dated 1997).
“And” between values parts separate entries of the source, which are not always exact repeats. Identical values can stand only once.

What was measured:
[1] = system: endotoxin induced lethality; assay: endotoxin induced lethality in mice (septic shock model); type: in vivo, Balb/c mice; conditions: for cumulative percent survival: 72 hours post LPS (LPS-only 7%); for survival (Number Surviving/Total): single experiments
Method: Animals were treated with 10 μg/gm of LPS (i.v.) Immediately following the LPS (t=0), 2 hrs after the LPS (t=2) or 4 hrs following LPS (t-4) the mice were treated with their first treatment of CT1501R (100 mg/kg, i.p.). The mice were treated with CT1501R three times per day thereafter, and animal survival was monitored.
This example illustrates the effect of CT1501R on survival in mice given a lethal dose of endotoxin. We determined if CT1501R protects against endotoxin induced lethality in a murine model. Septic shock was modeled by endotoxin injection of 6-8 week old female Balb/c mice similar to previously published reports (Ashkenazi et al. Proc. Natl. Acad. Sci. U.S.A. 88: 10535-10539, 1991) under protocols approved by the Animal Use Committee of the Biomembrane Institute, Seattle, Wash. Animals were injected intravaneously (i.v.) with an approximate LD100 dose (10 μg/g) of Salmonella abortus equi-derived endotoxin (Sigma Chemical Co., L-1887) in phosphate buffered saline (PBS). CT1501R at a dose of 100 μg/kg was injected intraperitoneally (IP) 3 times per day ([…]). Control mice were injected at the same times with a similar volume of vehicle control (PBS). Survival was followed for at least 72 hours.
Ten mice were treated each with PB S alone or CT 1501R alone on the same schedule as the experimental mice. […] Endotoxin survival data were summarized from a total of six (6) independent experiments. Summary Table 1 details the results of each of the six experiments. In FIG. 5, each time point represents a minimum of three (3) experiments comprising at least twenty (20) mice per group. A probability analysis of the survival data using a Fisher's Exact One Tailed Test is given as Table 3. Significant protection was conferred if CT1501R was administered immediately after the LPS treatment. The cumulative percent survival at 72 hours post LPS treatment was 60% compared to 7% for the LPS-only treated animals (p=<0.0005; Table 3).

TNF-α = assay: mouse plasma TNF-α ELISA after endotoxin; type: in vivo, mice
Method: Each point represents the average of two experiments compiled from the average of duplicate ELISA measurements with each experimental point representing pooled plasma from three mice.
For ELISA measurements of cytokine levels in plasma, blood was collected by retro-orbital or cardiac puncture of anesthetized mice, immediately centrifuged and the EDTA plasma stored at -70° C. Particulate free plasma was thawed on ice and cytokine levels determined utilizing commercial ELISA assays with normal mouse plasma used to generate standard curves. Murine tumor necrosis factor-α and interleukin-1α kits were purchased from Genzyme (Cambridge, Mass.) and Endogen (Boston, Mass.), respectively. Each data point was an average of two ELISA measurements made from EDTA serum pooled from three mice. The data summarized in Table 3 were compiled from two independent experiments; data from Table 4 and 5 were from single experiments of three mice per data point.
Levels of TNF-α, IL-1α and IL-6 were measured in the plasma of mice as a function of time following treatment with S. abortus endotoxin. […] TNF-α levels peaked within 1 hour of treatment of endotoxin (Table 4 and FIG. 6). Treatment of the mice with CT1501R decreased the levels of TNF-α in the EDTA plasma of endotoxin treated mice at all time points measured. […]

## C[C@@H](O)CCCCn1c(=O)c2c(ncn2C)n(C)c1=O [CT1501R, (R)-1-(5-hydroxyhexyl)-3,7-dimethylxanthine]
[1]; CT1501R four hours after LPS
  cumulative percent survival: 37%
[1]; CT1501R immediately after LPS
  cumulative percent survival: 60%
[1]; CT1501R two hours after LPS
  cumulative percent survival: 55%
[1]; drug given approximately simultaneously with or two hours following lethal LPS
  survival compared with published results for Genentech's bifunctional TNF receptor: consistently was better at improving survival than Genentech's TNF receptor
[1]; first CT-1501R dose t = 0 Hr post LPS, 24 Hr post LPS
  survival (Number Surviving/Total): 4/5 and 5/5 and 9/10
[1]; first CT-1501R dose t = 0 Hr post LPS, 48 Hr post LPS
  survival (Number Surviving/Total): 4/5 and 5/5 and 7/10
[1]; first CT-1501R dose t = 0 Hr post LPS, 72 Hr post LPS
  survival (Number Surviving/Total): 4/5 and 5/5 and 3/10
[1]; first CT-1501R dose t = 2 Hr post LPS, 24 Hr post LPS
  survival (Number Surviving/Total): 4/5 and 5/5 and 5/10
[1]; first CT-1501R dose t = 2 Hr post LPS, 48 Hr post LPS
  survival (Number Surviving/Total): 3/5 and 5/5 and 3/10
[1]; first CT-1501R dose t = 2 Hr post LPS, 72 Hr post LPS
  survival (Number Surviving/Total): 3/5 and 5/5 and 3/10
[1]; first CT-1501R dose t = 4 Hr post LPS, 24 Hr post LPS
  survival (Number Surviving/Total): 5/5 and 7/10 and 3/10
[1]; first CT-1501R dose t = 4 Hr post LPS, 48 Hr post LPS
  survival (Number Surviving/Total): 3/5 and 5/10 and 4/10 and 3/10
[1]; first CT-1501R dose t = 4 Hr post LPS, 72 Hr post LPS
  survival (Number Surviving/Total): 3/5 and 5/10 and 2/10 and 3/10
[1]; ten mice, same schedule as the experimental mice
  adverse effects, drug alone without endotoxin: no adverse effects noted
TNF-α; 0.5 hour post endotoxin
  decrease of peak plasma TNF-α vs endotoxin only: 2.5 fold
TNF-α; 1 hour post endotoxin
  decrease of peak plasma TNF-α vs endotoxin only: 2.6 fold
